Molecular target: T1, human GPR120 (Homo sapiens, UniProt Q5NUL3)
T1 sequence (Q5NUL3 1-361): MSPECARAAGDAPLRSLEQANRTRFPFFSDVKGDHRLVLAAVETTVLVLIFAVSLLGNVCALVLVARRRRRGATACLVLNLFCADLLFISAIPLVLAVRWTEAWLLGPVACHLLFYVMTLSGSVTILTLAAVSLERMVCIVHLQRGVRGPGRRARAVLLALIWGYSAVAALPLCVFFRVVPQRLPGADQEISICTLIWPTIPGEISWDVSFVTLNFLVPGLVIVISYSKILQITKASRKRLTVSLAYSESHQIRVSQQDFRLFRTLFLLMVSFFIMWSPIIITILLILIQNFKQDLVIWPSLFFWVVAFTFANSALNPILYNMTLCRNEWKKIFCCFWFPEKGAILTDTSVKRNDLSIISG
Experiment: Ca2+ influx activity of CHO cells expressing human GPR120
Format: cell-based

SMILES | EC50 [µM]
Cc1ccc(-c2ccc(F)cc2COc2ccc(CC3SC(=O)NC3=O)cc2)cc1 (stereo not shown) [Compound 1g, 5-(4-((4-Fluoro-4′-methyl-[1,1′-biphenyl]-2-yl)methoxy)benzyl)thiazolidine-2,4-dione] | 0.182 ± 0.0132
Cc1ccc(-c2ccc(F)cc2COc2ccc(CC3SC(=O)NC3=O)c(C)c2)cc1 (stereo not shown) [Compound 2g, 5-(4-((4-Fluoro-4′-methyl-[1,1′-biphenyl]-2-yl)methoxy)-2-methylbenzyl)thiazolidine-2,4-dione] | 0.134 ± 0.0118
COc1cc(OCc2cc(F)ccc2-c2ccc(C)cc2)ccc1CC1SC(=O)NC1=O (stereo not shown) [Compound 3g, 5-(4-((4-Fluoro-4′-methyl-[1,1′-biphenyl]-2-yl)methoxy)-2-methoxybenzyl)thiazolidine-2,4-dione] | 0.122 ± 0.0131

Second part, the compound after the results:

EC50 [µM] | SMILES
0.461 ± 0.0361 | Cc1ccc(-c2ccc(F)cc2COc2ccc(CC3SC(=O)NC3=O)cc2C)cc1 (stereo not shown) [Compound 6g, 5-(4-((4-Fluoro-4′-methyl-[1,1′-biphenyl]-2-yl)methoxy)-3-methylbenzyl)thiazolidine-2,4-dione]
0.276 ± 0.0205 | Cc1ccc(-c2ccc(F)cc2COc2ccc(CC3SC(=O)NC3=O)cc2F)cc1 (stereo not shown) [Compound 7g, 5-(3-Fluoro-4-((4-fluoro-4′-methyl-[1,1′-biphenyl]-2-yl)methoxy)benzyl)thiazolidine-2,4-dione]
0.142 ± 0.0125 | Cc1ccc(-c2ccc(F)cc2COc2ccc(CC3SC(=O)NC3=O)c(F)c2F)cc1 (stereo not shown) [Compound 8g, 5-(2,3-Difluoro-4-((4-fluoro-4′-methyl-[1,1′-biphenyl]-2-yl)methoxy)benzyl)thiazolidine-2,4-dione]
0.137 ± 0.0163 | Cc1ccc(-c2ccc(F)cc2COc2cc(F)c(CC3SC(=O)NC3=O)c(F)c2)cc1 (stereo not shown) [Compound 9g, 5-(2,6-Difluoro-4-((4-fluoro-4′-methyl-[1,1′-biphenyl]-2-yl)methoxy)benzyl)thiazolidine-2,4-dione]
